We go through 31 compounds from PubChem BioAssay AID588709 (The Scripps Research Institute Molecular Screening Center, 2011).

Where “and” joins values, the source holds several entries; their conditions need not be identical. Identical values can stand only once. Calls of active or inactive are those of the source. How the calls were made is not given here.

For this experiment, the system named is HEK293 cytotoxicity, ATP luminescence. Nature of the experiment: HEK cell viability loss – luminescence, HEK cells, counter-screen for IDE inhibitor project, dose response (AID 588709). (The purpose of a counterscreen is to sort out artefacts and off-target activity.)
For the compound `O=C(Nc1cccc(C(F)(F)F)c1)c1csc(-c2ccncc2)n1`, the IC50 was 24.1 µM (inactive).
Consider `Cn1c(SCc2nc3ccccc3[nH]2)nnc1-c1cccc(Cl)c1`, for which the IC50 is > 71.5 µM (inactive).
Take `Nc1c(C(=O)Nc2nccs2)sc2nc(-c3cccs3)cc(C(F)(F)F)c12`: the IC50 is 9.06 µM.
With `O=C(Nc1ccc2oc(-c3cccnc3)nc2c1)c1ccc2c(c1)OCCO2`, the IC50 is > 71.5 µM (inactive).
In the case of `O=C(Nc1cc(C(F)(F)F)cc(C(F)(F)F)c1)c1csc(-c2ccncc2)n1`, the IC50 was > 71.5 µM (inactive).
Then `Clc1cccc(-c2nnc(SCc3nc4ccccc4[nH]3)n2-c2ccccc2)c1`, with 31.2 µM (inactive); and `COc1ccc(C(=O)N2CCN(C(=O)C3COc4ccccc4O3)CC2)cc1OC` (stereo unspecified), with > 71.5 µM (inactive); and `COc1cc(/C=C2\SC(=S)N(NC(C)=O)C2=O)ccc1OC(=O)c1ccco1`, with > 71.5 µM (inactive).
Take `O=C(CSc1nnc(-c2cccc(Cl)c2)n1Cc1ccco1)Nc1ccccc1C(F)(F)F`: the IC50 was 30.9 µM (inactive).
Then `O=c1c2ccccc2sn1-c1cc(S(=O)(=O)N2CCOCC2)ccc1N1CCOCC1`, with 9.61 µM.
With `O=C(Nc1cccc(C(F)(F)F)c1)c1csc(-c2cccc(C(F)(F)F)c2)n1`, the IC50 was 55.9 µM (inactive).
Turning to `O=C(Nc1cccc(C(F)(F)F)c1)c1csc(Cc2cccc(C(F)(F)F)c2)n1`, the IC50 was 29.5 µM (inactive).
As for `Cc1ccc(C)c(N2C(=N)S/C(=C\c3ccc(-c4ccccc4C(=O)O)o3)C2=O)c1`, the IC50 is > 71.5 µM (inactive).
Then `COc1ccc(-c2nc(C(=O)Nc3cccc(C(F)(F)F)c3)cs2)cc1`, with 67.8 µM (inactive); and `O=C(CSc1nnc(-c2cccc(Cl)c2)n1Cc1ccco1)Nc1ccc2c(c1)OCCO2`, with 29.7 µM (inactive); and `Cc1nc(-c2cccnc2)sc1C(=O)Nc1cccc(C(F)(F)F)c1`, with 15.8 µM (inactive).
`O=C(C1CC1)N1CCN(c2ccnc3cc(Cl)ccc23)CC1`: the IC50 is > 71.5 µM (inactive).
As for `O=C(CSc1nnc(-c2cccc(Cl)c2)n1Cc1ccco1)Nc1ccc2cn[nH]c2c1`, the IC50 was > 71.5 µM (inactive).
The value for `CC(Sc1nnc(-c2cccnc2)n1-c1ccccc1F)C(=O)N1CCCc2ccccc21` (stereo unspecified) was 32.1 µM (inactive); that for `Cc1c(CCC(=O)NCCCn2ccnc2)c(=O)oc2cc3oc4c(c3cc12)CCCC4` was 21.4 µM (inactive); that for `Cc1ccc(NC(=O)CSc2nnc(-c3cccc(Cl)c3)n2Cc2ccco2)c(C)c1` was 35.6 µM (inactive).
Then `COc1cccc(-c2nnc(SCc3nc4ccccc4[nH]3)n2Cc2ccco2)c1`, with 36.5 µM (inactive); and `COc1ccc(NC(=O)CSc2nnc(CN3CCOCC3)n2C)cc1Cl`, with > 71.5 µM (inactive).
In the case of `CCOc1ccc2[nH]c3c(N4CCN(C(=O)c5ccco5)CC4)ncnc3c2c1`, the IC50 was 21.1 µM (inactive).
Regarding `CCN(CC)c1ccc(/C=C2\C(=N)N3N=C(CC(=O)N4CCOCC4)SC3=NC2=O)cc1`, the IC50 was > 71.5 µM (inactive).
Then `Cc1ccc(-c2nc(C(=O)Nc3cccc(C(F)(F)F)c3)cs2)cc1`, with 36.1 µM (inactive); and `O=C(Nc1cccc(C(F)(F)F)c1)c1csc(-c2ccccc2)n1`, with 33.3 µM (inactive); and `Clc1cccc(-c2nnc(SCc3nc4ccccc4[nH]3)n2Cc2ccco2)c1`, with 23.3 µM (inactive).
Turning to `O=C(CSc1nnc(-c2cccc(Cl)c2)n1Cc1ccco1)c1ccc2ccccc2c1`, the IC50 was 30.7 µM (inactive).
The value for `Cn1c(=O)c(C(=O)CN2CCCc3ccccc32)c(N)n(Cc2ccccc2)c1=O` was 30.1 µM (inactive); that for `Cc1cccc(-c2nnc(SCc3nc4ccccc4[nH]3)n2Cc2ccco2)c1` was 34.8 µM (inactive) and 32.7 µM (inactive).

The term IC50 denotes the concentration needed to halve the response being measured.
